Measured values published in ChEMBL document CHEMBL5316381, “Discovery of [1,2,3]Triazolo[4,5-c]quinoline Derivatives as a New Class of Ataxia-Telangiectasia Mutated Kinase Inhibitors” (ACS Med Chem Lett, 2023).
The source made the active and inactive calls. No cut-off for these calls is given here.

Experiments:
SW-620 [1] = assay: Antiproliferative activity against human SW620 cells assessed as reduction in colony formation at 9 nM measured after 14 days by crystal violet staining based microscopic analysis; assay type: functional, cell-based; conditions: time 14.0 day
SW-620 [2] = assay: Cell cycle arrest in human SW620 cells assessed as accumulation of cells at G2/M phase incubated for 24 hrs in presence of CPT-11 by PI staining based flow cytometric analysis; assay type: functional; conditions: dose 10-100 nM
SW-620 [3] = assay: Induction of apoptosis in human SW620 cells assessed as necrotic cells at 100 nM measured after 72 hrs in presence of CPT-11 by Annexin V-FITC staining based flow cytometric analysis (reference value: 5.83%); assay type: functional
SW-620 [4] = assay: Induction of apoptosis in human SW620 cells assessed as viable cells at 30 nM measured after 72 hrs in presence of CPT-11 by Annexin V-FITC staining based flow cytometric analysis (reference value: 87.36%); assay type: functional; conditions: read-out: Activity
SW-620 [5] = assay: Induction of apoptosis in human SW620 cells assessed as necrotic cells at 10 nM measured after 72 hrs in presence of CPT-11 by Annexin V-FITC staining based flow cytometric analysis (reference value: 5.83%); assay type: functional
HCT-116 [6] = assay: Induction of apoptosis in human HCT-116 cells assessed as early apoptotic cells at 1 uM measured after 72 hrs by Annexin V-FITC staining based flow cytometric analysis (reference value: 4.06%); assay type: functional
HCT-116 [7] = assay: Induction of apoptosis in human HCT-116 cells assessed as necrotic cells at 1 uM measured after 72 hrs by Annexin V-FITC staining based flow cytometric analysis (reference value: 2.41%); assay type: functional
HCT-116 [8] = assay: Induction of apoptosis in human HCT-116 cells assessed as late apoptotic cells at 1 uM measured after 72 hrs by Annexin V-FITC staining based flow cytometric analysis (reference value: 19.80%); assay type: functional
HCT-116 [9] = assay: Induction of apoptosis in human HCT-116 cells assessed as viable cells at 100 nM measured after 72 hrs in presence of CPT-11 by Annexin V-FITC staining based flow cytometric analysis (reference value: 73.74%); assay type: functional; conditions: read-out: Activity
HCT-116 [10] = assay: Induction of apoptosis in human HCT-116 cells assessed as late apoptotic cells at 100 nM measured after 72 hrs in presence of CPT-11 by Annexin V-FITC staining based flow cytometric analysis (reference value: 19.80%); assay type: functional
HCT-116 [11] = assay: Induction of apoptosis in human HCT-116 cells assessed as viable cells at 30 nM measured after 72 hrs in presence of CPT-11 by Annexin V-FITC staining based flow cytometric analysis (reference value: 73.74%); assay type: functional; conditions: read-out: Activity
HCT-116 [12] = assay: Induction of apoptosis in human HCT-116 cells assessed as late apoptotic cells at 30 nM measured after 72 hrs in presence of CPT-11 by Annexin V-FITC staining based flow cytometric analysis (reference value: 19.80%); assay type: functional
HCT-116 [13] = assay: Induction of apoptosis in human HCT-116 cells assessed as necrotic cells at 30 nM measured after 72 hrs in presence of CPT-11 by Annexin V-FITC staining based flow cytometric analysis (reference value: 2.41%); assay type: functional
HCT-116 [14] = assay: Induction of apoptosis in human HCT-116 cells assessed as early apoptotic cells at 10 nM measured after 72 hrs in presence of CPT-11 by Annexin V-FITC staining based flow cytometric analysis (reference value: 4.06%); assay type: functional
HCT-116 [15] = assay: Induction of apoptosis in human HCT-116 cells assessed as viable cells at 100 nM measured after 72 hrs by Annexin V-FITC staining based flow cytometric analysis (reference value: 73.74%); assay type: functional; conditions: read-out: Activity
HCT-116 [16] = assay: Induction of apoptosis in human HCT-116 cells assessed as early apoptotic cells at 100 nM measured after 72 hrs by Annexin V-FITC staining based flow cytometric analysis (reference value: 4.06%); assay type: functional
HCT-116 [17] = assay: Induction of apoptosis in human HCT-116 cells assessed as late apoptotic cells at 100 nM measured after 72 hrs by Annexin V-FITC staining based flow cytometric analysis (reference value: 19.80%); assay type: functional
HCT-116 [18] = assay: Induction of apoptosis in human HCT-116 cells assessed as necrotic cells at 100 nM measured after 72 hrs by Annexin V-FITC staining based flow cytometric analysis (reference value: 2.41%); assay type: functional
[19] = molecular target: T1, Serine-protein kinase ATM (Homo sapiens, UniProt Q13315); assay: Inhibition of ATM phosphorylation in human SW620 cells with IR-induced DNA damage in the presence of 3 Gy irradiation by Western blot analysis; assay type: cell-based; conditions: dose 3-250 nM
T1 sequence (Q13315 whole entry): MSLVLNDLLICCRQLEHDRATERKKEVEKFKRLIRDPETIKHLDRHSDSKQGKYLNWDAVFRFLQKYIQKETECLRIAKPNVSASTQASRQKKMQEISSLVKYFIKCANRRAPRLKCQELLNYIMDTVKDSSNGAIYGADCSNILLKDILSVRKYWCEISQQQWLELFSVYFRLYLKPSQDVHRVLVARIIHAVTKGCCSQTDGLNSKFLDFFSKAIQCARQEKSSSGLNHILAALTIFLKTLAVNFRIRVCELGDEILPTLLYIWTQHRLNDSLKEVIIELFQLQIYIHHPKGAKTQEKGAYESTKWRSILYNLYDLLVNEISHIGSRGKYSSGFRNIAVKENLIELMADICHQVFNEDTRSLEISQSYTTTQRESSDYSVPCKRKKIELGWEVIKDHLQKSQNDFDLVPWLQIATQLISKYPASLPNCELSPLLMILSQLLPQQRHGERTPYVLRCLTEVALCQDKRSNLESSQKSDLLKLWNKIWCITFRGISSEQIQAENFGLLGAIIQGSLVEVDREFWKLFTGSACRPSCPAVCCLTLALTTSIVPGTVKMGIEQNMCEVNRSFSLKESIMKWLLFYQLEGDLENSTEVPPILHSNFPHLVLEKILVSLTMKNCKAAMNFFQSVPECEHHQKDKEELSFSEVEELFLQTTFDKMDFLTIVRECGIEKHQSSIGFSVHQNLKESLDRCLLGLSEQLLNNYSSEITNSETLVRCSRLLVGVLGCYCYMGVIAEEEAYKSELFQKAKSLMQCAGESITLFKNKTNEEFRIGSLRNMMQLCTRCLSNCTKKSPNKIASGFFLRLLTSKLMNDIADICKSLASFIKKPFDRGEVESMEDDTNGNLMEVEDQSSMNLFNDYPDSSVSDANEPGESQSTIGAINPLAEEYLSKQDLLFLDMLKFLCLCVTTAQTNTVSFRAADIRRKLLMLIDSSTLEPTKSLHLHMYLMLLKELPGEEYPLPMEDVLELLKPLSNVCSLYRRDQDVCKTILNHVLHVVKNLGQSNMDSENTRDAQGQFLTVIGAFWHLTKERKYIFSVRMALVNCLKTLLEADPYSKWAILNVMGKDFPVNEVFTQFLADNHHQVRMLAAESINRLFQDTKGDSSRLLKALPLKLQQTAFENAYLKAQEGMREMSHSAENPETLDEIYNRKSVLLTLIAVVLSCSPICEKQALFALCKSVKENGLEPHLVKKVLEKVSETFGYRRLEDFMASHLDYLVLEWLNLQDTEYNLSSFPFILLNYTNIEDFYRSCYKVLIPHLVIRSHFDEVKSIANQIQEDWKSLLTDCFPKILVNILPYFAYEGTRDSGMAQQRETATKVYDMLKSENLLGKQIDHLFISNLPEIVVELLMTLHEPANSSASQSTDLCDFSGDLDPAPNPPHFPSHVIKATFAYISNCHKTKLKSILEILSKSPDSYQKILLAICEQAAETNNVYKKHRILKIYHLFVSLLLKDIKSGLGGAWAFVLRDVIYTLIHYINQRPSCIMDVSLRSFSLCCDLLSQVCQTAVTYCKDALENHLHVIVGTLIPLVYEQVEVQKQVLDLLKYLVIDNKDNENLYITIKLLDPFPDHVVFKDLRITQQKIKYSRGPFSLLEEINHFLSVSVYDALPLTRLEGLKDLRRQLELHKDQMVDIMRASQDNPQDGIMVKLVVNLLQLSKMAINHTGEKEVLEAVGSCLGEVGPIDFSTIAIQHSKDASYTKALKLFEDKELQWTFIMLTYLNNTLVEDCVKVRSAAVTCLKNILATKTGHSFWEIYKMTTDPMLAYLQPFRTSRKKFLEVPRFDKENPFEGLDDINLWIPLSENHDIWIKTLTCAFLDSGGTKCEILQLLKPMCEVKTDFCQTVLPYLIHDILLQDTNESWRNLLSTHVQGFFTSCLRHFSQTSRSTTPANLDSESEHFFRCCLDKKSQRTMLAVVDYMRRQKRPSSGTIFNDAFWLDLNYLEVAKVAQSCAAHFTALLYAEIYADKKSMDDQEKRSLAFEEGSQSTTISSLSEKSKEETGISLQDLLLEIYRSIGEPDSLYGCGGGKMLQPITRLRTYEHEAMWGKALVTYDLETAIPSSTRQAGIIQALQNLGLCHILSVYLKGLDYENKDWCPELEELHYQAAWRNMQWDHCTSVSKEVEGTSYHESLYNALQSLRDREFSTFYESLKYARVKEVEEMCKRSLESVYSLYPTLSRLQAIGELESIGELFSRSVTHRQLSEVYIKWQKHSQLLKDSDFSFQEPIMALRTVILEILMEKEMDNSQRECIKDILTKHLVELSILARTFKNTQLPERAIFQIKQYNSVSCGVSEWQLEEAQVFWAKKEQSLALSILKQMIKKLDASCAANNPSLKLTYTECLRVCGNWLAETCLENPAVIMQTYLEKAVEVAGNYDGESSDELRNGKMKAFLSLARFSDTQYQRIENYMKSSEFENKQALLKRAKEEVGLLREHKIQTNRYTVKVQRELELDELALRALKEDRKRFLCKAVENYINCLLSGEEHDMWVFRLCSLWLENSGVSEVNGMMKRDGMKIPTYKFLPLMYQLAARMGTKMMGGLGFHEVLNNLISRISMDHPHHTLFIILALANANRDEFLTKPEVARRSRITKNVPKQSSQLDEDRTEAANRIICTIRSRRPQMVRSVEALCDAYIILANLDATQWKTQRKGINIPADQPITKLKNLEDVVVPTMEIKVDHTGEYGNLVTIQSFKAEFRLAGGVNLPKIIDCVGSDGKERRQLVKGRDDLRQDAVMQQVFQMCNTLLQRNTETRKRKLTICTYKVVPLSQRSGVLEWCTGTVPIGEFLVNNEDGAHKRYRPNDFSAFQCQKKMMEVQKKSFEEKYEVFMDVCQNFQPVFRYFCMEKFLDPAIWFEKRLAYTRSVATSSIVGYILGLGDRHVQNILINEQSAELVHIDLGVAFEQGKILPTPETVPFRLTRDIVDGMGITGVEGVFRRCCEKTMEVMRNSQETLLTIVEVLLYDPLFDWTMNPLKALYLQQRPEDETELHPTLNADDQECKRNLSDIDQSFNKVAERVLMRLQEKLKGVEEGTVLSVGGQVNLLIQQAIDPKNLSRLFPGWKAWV

[20] = molecular target: Serine/threonine-protein kinase Chk2 (Homo sapiens) (UniProt O96017); assay: Inhibition of Chk2 phosphorylation in human SW620 cells with IR-induced DNA damage in the presence of 1.5 Gy irradiation by Western blot analysis; assay type: cell-based; conditions: dose 3-250 nM
Chain of Serine/threonine-protein kinase Chk2 (Homo sapiens) (O96017 whole entry): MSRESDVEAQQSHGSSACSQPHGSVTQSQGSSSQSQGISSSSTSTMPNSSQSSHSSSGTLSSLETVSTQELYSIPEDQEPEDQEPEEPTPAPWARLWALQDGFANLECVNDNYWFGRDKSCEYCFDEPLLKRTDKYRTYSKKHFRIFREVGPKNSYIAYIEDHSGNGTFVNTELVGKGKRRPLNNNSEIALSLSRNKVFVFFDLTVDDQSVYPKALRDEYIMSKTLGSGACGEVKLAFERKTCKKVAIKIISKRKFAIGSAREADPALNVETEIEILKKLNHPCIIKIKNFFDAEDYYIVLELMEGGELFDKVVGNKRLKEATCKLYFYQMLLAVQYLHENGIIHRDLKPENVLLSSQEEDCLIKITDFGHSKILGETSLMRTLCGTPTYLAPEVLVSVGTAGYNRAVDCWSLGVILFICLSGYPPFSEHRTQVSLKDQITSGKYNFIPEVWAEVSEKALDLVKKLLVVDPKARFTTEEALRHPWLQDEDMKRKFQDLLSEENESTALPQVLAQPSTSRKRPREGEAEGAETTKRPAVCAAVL

[21] = Toxicity in BALB/c mouse xenografted with human SW620 cells assessed as heart damage at 5 mg/kg, ip administered once daily and measured after 23 days by H&E staining based microscopic analysis; assay type: organism-based, SW-620; conditions: in vivo, 552 h, time 23 day
[22] = Toxicity in BALB/c mouse xenografted with human SW620 cells assessed as spleen damage at 5 mg/kg, ip administered once daily and measured after 23 days by H&E staining based microscopic analysis; assay type: organism-based, SW-620; conditions: in vivo, 552 h, time 23 day
HCT-116 [23] = assay: Anticancer activity against human HCT-116 cells assessed as reduction in cell viability by measuring fold change in CPT-11 IC50 at 100 nM incubated for 5 days by MTT assay relative irinotecan alone; assay type: functional; conditions: time 5 day
[24] = molecular target: T2, Serine/threonine-protein kinase Chk1 (Homo sapiens) (UniProt O14757); assay: Inhibition of CPT-11 induced Chk1 phosphorylation in human SW620 cells by SDS-PAGE based Westernblot analysis; assay type: cell-based
T2 sequence (whole entry): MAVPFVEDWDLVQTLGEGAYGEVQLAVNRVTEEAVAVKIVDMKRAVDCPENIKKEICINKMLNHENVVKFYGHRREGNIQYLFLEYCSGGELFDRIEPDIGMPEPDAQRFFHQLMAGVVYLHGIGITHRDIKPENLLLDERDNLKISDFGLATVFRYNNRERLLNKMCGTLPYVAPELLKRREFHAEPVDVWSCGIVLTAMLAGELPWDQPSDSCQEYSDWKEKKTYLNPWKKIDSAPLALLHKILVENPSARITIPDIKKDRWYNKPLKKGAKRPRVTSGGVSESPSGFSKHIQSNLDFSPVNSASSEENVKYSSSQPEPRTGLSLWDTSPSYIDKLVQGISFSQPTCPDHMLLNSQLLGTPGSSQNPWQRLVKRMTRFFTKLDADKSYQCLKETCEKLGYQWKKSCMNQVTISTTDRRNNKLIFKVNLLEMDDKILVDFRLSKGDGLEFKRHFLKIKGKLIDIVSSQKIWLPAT

[25] = molecular target: T1, Serine-protein kinase ATM; assay: Inhibition of ATM in human SW620 cells assessed as increase in gamma H2AX foci accumulation at 50 to 250 nM incubated for 24 hrs in the presence of CPT-11 by confocal microscopic analysis; assay type: cell-based; conditions: dose 50-250 nM
SW-620 [26] = assay: In vivo inhibition of ATM in BALB/c mouse model xenografted with human SW620 cells assessed as inhibition of Chk2 phosphorylation at 5 mg/kg, ip administered once daily and measured after 23 days in the presence of CPT-11 by Western blot analysis; assay type: functional, organism-based; conditions: time 23.0 day

For `C[C@H](c1ccccc1)n1nnc2cnc3ccc(-c4ccc(OCCCN(C)C)nc4)cc3c21`, the Activity (SW-620 [1]) was “inactive”, the Activity (SW-620 [2]) was “Dose-Dependent Effect” and the Activity (SW-620 [3]) was 1.63%. For the same compound, the viability at 0.03 µM (SW-620 [4]) was 47.2%, the Activity (SW-620 [5]) was 5.94% and the Activity (HCT-116 [6]) was 1.34%. The Activity (HCT-116 [7]) was 5.57%, the Activity (HCT-116 [8]) was 31.02% and the viability at 0.1 µM (HCT-116 [9]) was 22%. For the same compound, the Activity (HCT-116 [10]) was 68.15%, the viability at 0.03 µM (HCT-116 [11]) was 25.7% and the Activity (HCT-116 [12]) was 63.63%. The Activity (HCT-116 [13]) was 8.39%, the Activity (HCT-116 [14]) was 1.1% and the viability at 0.1 µM (HCT-116 [15]) was 75.3%. It also gave an Activity (HCT-116 [16]) of 1.21%, an Activity (HCT-116 [17]) of 14.21% and an Activity (HCT-116 [18]) of 9.24%. For the same compound, the inhibition [19] was “Dose-Dependent Effect”, the inhibition [20] was “Dose-Dependent Effect” and the Activity [21] was “Non-Toxic”. The Activity [22] was “Non-Toxic”, the “fold change (FC)” value (HCT-116 [23]) was 16 and the inhibition [24] was “inactive”. The inhibition [25] was “Active” and the inhibition (SW-620 [26]) was “Active”.
